The test system of data set [1] is Pityrosporum ovale. Briefly: Paper disc diffusion test for antifungal activity. In kind it is cell-based. The note with it: 45 μl of 0.1% acetone solution on paper disc; 30° C., 3 days. As for the experimental part:
A paper disc diffusion method was used to investigate antifungal activity against a fungus, Pityrosporum ovale. Sabouraud's dextrose solid medium containing 1% of corn oil and 0.1% Tween-80 was aliquotted onto 87 mm plane plates, and allowed to harden. In order to examine antifungal activity against P. ovale, […] of P. ovale cultured in Sabouraud's dextrose solid medium at 30° C. for 2 days was smeared onto the plates, and then dried. 45 μl of an acetone solution containing 0.1% of 4-hydroxy-5-methoxy-4-[2-methyl-3-(3-methyl-2-butenyl)-2-oxiranyl]-1-oxaspiro[2,5]octan-6-one was aliquated onto paper discs, and, after completely evaporating off the acetone, put onto the P. ovale-smeared medium. Plates not treated with 4-hydroxy-5-methoxy-4-[2-methyl-3-(3-methyl-2-butenyl)-2-oxiranyl]-1-oxaspiro[2,5]octan-6-one were used as controls. Thereafter, incubation was carried out at 30° C. for 3 days, and it was observed whether a growth inhibition area formed around the discs or not.

For data set [2], the system named is Pityrosporum ovale. Briefly: Minimum inhibition concentration (MIC) on Sabouraud's dextrose solid medium. In kind it is cell-based. The conditions noted are these: Malassezia furfur; solid medium with 1% corn oil and 0.1% Tween-80; 30° C., 3 to 5 days; naked eye. The procedure:
For use in this test, P. ovale was cultured in Sabouraud's dextrose solid medium containing 1% corn oil and 0.1% Tween-80 at 30° C. for 2 days. After Sabouraud's dextrose solid medium containing 1% corn oil and 0.1% Tween-80 was aliquotted onto 6 cm plane plates, 4-hydroxy-5-methoxy-4-[2-methyl-3-(3-methyl-2-butenyl)-2-oxiranyl]-1-oxaspiro[2,5]octan-6-one was added in various concentration. When the medium was hardened, 150 μl of the cultured P. ovale was smeared onto the medium, followed by incubation at 30° C. for 3 to 5 days. Observing with naked eye, a minimum concentration capable of inhibiting the growth of the fungus was determined as MIC (Minimum Inhibition Concentration).
MIC versus P. ovale of 4-hydroxy-5-methoxy-4-[2-methyl-3-(3-methyl-2-butenyl)-2-oxiranyl]-1-oxaspiro[2,5]octan-6-one is given in Table 1, below.

Data set [3] concerns four-week old female rats. The data set is described as follows: Acute dermal toxicity test. In kind it is in vivo. The conditions noted are these: 4000 mg/kg applied to about 10% of body surface area of shaved rats; observation for 15 days. As for the experimental part:
4-hydroxy-5-methoxy-4-[2-methyl-3-(3-methyl-2-butenyl)-2-oxiranyl]-1-oxaspiro[2,5]octan-6-one, which was isolated from the culture filtrate and then purified, was tested for acute dermal toxicity using four-week old female rats, according to the standards provided by the Korean Food & Drug Administration. After the rats were shaved, 4000 mg/kg (body weight) of the compound was uniformly applied to about 10% of body surface area of rats.

As a reminder, the MIC is the least concentration at which growth counts as inhibited. High values mean weaker potency, low ones greater potency. Consider `COC1C(=O)CCC2(CO2)C1(O)C1(C)OC1CC=C(C)C` (stereo not drawn) [4-hydroxy-5-methoxy-4-[2-methyl-3-(3-methyl-2-butenyl)-2-oxiranyl]-1-oxaspiro[2,5]octan-6-one], for which the “antifungal activity against P. ovale (growth inhibition area around the discs)” value in data set [1] is reported as “found to have antifungal activity”. In addition, in data set [2], the MIC was < 2 µg/mL. In addition, in data set [3], the “irritation, such as erythema or crusting” value is “not detected irritation”.

The values are drawn from patent US20050124690A1, “Pharmaceutical composition for the treatment of seborrhea containing 4-hydroxy-5-methoxy-4-[2-methyl-3(3-methyl-2-butenyl)-2-oxiranyl]-1-oxaspiro[2,5]octan-6-one” (priority 2002, published 2005).
